The results in this text go back to US20240277606A1, “METHODS FOR THE PULSED DELIVERY OF BIOACTIVE AGENTS” (University of Mississippi, priority 2021, published 2024).

One series has as its target T1, 5HT2A receptor (Homo sapiens, UniProt P28223).
T1 construct: host or cells: Chem-1 cells (parental control HTSCHEM-1RTA)
Kind of series: In vitro bioactivity: calcium flux (Fluo-8) in 5HT2A serotonin receptor cells. The format is cell-based. Conditions: 5 μM, 1 hr treatment, versus PBS control. The protocol: Briefly, 5HT2A serotonin receptor cells (Millipore Sigma, HTS082RTA) and chem-1 parental control cells (Millipore Sigma, HTSCHEM-1RTA) were seeded in 96 well plates (5000 cells-100 μl/well of 50,000 cells/ml solution) and allowed to adhere overnight. […] After 1 hr, Fluo-8 green dye solution (Abcam, ab112129) was added to the cells, incubated 30 min at 37° C., and then incubated for 30 minutes at room temperature, followed by fluorescence measurements on a microplate reader.
(Calcium assays in cells follow changes in intracellular calcium, usually with a dye or a luminescent sensor.)

Series [1] is described as follows: In vitro release from single-layered CAPP films. The format is physicochemical. As to conditions: for release rate compared with Rhodamine dye: from 0.1 mm thick CAPP films. How it is done:
Next, drug release from single-layered CAPP films of 0.1, 0.2, 0.3, and 0.4 mm thickness was quantified. Drug release was measured by encapsulating Rhodamine fluorescent dye within the films and closely matched the erosion times reported above. Complete release from 0.1 mm thick films occurred after ˜18 hrs (FIG. 4A). Complete release from 0.2 mm thick films occurred after ˜36 hrs (FIG. 4A). Complete release from 0.3 mm thick films occurred after ˜60 hrs (FIG. 4A). Complete release from 0.4 mm thick films occurred after ˜78 hrs (FIG. 4A). Importantly, release of 5HT2A agonists from 0.1 mm thick CAPP films was also measured, since 0.1 mm thick films are used to encapsulate drug in the multilayered films.

A short description of series [2]: Pilot pharmacokinetics of DOI from subcutaneously implanted 0.1 mm CAPP films. Conditions: DOI-loaded 0.1 mm CAPP film, subcutaneous, CD-1 mice. The format is in vivo. The text has this: Single-layered films loaded with DOI and blank single-layered films have been constructed. These films were sterilized and implanted subcutaneously in the dorsal flap of CD-1 mice in an initial pilot experiment. This pilot experiment enabled optimization of blood collection time points, ensure the ability to detect DOI with current bioanalytical techniques, and will inform the design of the rest of the in vivo studies. Briefly, films were implanted subcutaneously followed by blood and organ collection at 8, 16, and 24 hrs to monitor blood pharmacokinetics of DOI released from the 0.1 mm thick CAPP films in vivo. […] The concentration of DOI in the blood of mice returned to baseline by 16 hrs and remained at baseline through 24 hrs. […] This pilot experiment was repeated to: 1) sample at earlier time points for better overall fidelity and 2) to also determine the concentration of DOI in major organs, particularly the brain. […] As expected based on the plasma pharmacokinetics, it was observed that the peak concentration of DOI in the brain, liver, and kidneys was ˜2-4 hrs (FIGS. 13C-13F). […] The release profile of the same dose of DOI from 0.4 mm thick films can also be measured, as can the release profile of DOI from multilayered CAPP films with three DOI-loaded 0.1 mm thick films separated by 0.4 mm thick blank films.

A short description of series [3]: Follow-up plasma and organ pharmacokinetics of DOI from subcutaneously implanted 0.1 mm CAPP films. As to conditions: post-implantation of 0.1 mm thick CAPP films, subcutaneous. The format is in vivo, CD-1 mice. The text has this: Single-layered films loaded with DOI and blank single-layered films have been constructed. These films were sterilized and implanted subcutaneously in the dorsal flap of CD-1 mice in an initial pilot experiment. This pilot experiment enabled optimization of blood collection time points, ensure the ability to detect DOI with current bioanalytical techniques, and will inform the design of the rest of the in vivo studies. Briefly, films were implanted subcutaneously followed by blood and organ collection at 8, 16, and 24 hrs to monitor blood pharmacokinetics of DOI released from the 0.1 mm thick CAPP films in vivo. […] The concentration of DOI in the blood of mice returned to baseline by 16 hrs and remained at baseline through 24 hrs. […] This pilot experiment was repeated to: 1) sample at earlier time points for better overall fidelity and 2) to also determine the concentration of DOI in major organs, particularly the brain. […] As expected based on the plasma pharmacokinetics, it was observed that the peak concentration of DOI in the brain, liver, and kidneys was ˜2-4 hrs (FIGS. 13C-13F). DOI was cleared from the plasma as well as the brain, liver, and kidneys by ˜12 hrs post-implantation. The release profile of the same dose of DOI from 0.4 mm thick films can also be measured, as can the release profile of DOI from multilayered CAPP films with three DOI-loaded 0.1 mm thick films separated by 0.4 mm thick blank films.

Series [4] in a line: Pulsed delivery of DOI from subcutaneously implanted multilayer CAPP films coated with PSA. The series is classed as in vivo. Conditions: seven-layer CAPP film, subcutaneous. The text has this:
The multilayered CAPP films used for this study had seven layers, where layers 1, 4, and 7 were DOI-loaded 0.1 mm thick CAPP films at 70:30 CAP:P ratio and layers 2, 3, 5, and 6 were unloaded (Blank) 0.4 mm thick CAPP films at 90:10 CAP:P ratio. The layered devices were then coated on all sides but one (the top of layer 1) with the biocompatible polymer polysebacic acid (PSA). After implantation, the anticipated pulsed release schedule of DOI was observed, with three distinct DOI pulses where peak concentrations in the plasma occurred at ˜2, 12, and 24 hrs post-implantation.

Series [5] is described as follows: In vitro release kinetics from multilayered CAPP films (Rhodamine as model drug). The format is physicochemical. The text has this: The layering strategy (i.e., alternating 0.1 mm and 0.4 mm films) was chosen based on the results in FIGS. 4A-4B showing that 0.1 mm films erode in ˜24 hrs while 0.4 mm films erode in ˜70-80 hrs. Additionally, each layer was engineered to degrade by either bulk or surface erosion based on the function of that particular layer. The drug-loaded, 0.1 mm thick layers should degrade via bulk erosion such that the drug is rapidly released from these layers in a bolus. However, the “blank” 0.4 mm layers should erode via surface erosion to ensure gradual degradation of the blank layer from “top-to-bottom” to maintain ordered pulses of release over time. Therefore, the absorption of water into polymeric films composed of a range of CAP:P ratios was examined, since bulk erosion occurs in materials where the rate of water absorption is greater than the degradation rate. By contrast, surface erosion occurs in materials where the rate of degradation is greater than the rate of water absorption into the material. […] Therefore, multilayered films with 0.1 mm drug-loaded layers composed of 70:30 (bulk-eroding) CAPP films and 0.4 mm blank layers composed of 90:10 (surface eroding) CAPP films were produced. Lastly, the erosion time for CAPP films of CAP:P ratios varying from 70:30-90:10 was examined to inform the construction of multilayer devices that are to be composed of both 70:30 and 90:10 CAPP films. […] As film thickness increases, erosion time of the films increases proportionally.
We constructed multilayer CAPP films of alternating 0.1 mm bulk eroding, drug-loaded layers and 0.4 mm surface eroding, blank layers and observed drug release kinetics from these films using Rhodamine as a model drug. […] However, in these preliminary results the third drug pulse is not obvious and the gaps between pulses have some variability. A new layering design was implemented to counter these shortcomings; including adding two “blank” layers between each drug-loaded film, as well as having “blank” layers on the bottom of the device to maintain device structure through the third drug pulse.

Where [6] appears, read: multilayer film, alternating 0.1 mm drug-loaded and 0.4 mm blank layers.

T1 sequence (P28223 whole entry): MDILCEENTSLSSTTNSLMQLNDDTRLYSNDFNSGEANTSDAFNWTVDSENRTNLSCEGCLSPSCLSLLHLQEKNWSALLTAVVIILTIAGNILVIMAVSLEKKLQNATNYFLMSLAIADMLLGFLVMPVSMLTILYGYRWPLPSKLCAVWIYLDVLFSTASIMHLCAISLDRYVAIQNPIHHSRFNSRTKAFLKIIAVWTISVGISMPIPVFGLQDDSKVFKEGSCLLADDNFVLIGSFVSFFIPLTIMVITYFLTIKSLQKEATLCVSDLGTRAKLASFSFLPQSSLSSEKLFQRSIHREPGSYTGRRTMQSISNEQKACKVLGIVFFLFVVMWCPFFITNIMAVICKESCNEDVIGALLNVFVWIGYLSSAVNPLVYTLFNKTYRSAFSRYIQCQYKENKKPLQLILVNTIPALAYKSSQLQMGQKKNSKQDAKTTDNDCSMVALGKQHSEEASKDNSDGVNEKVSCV

With `CCN(CC)C(=O)[C@@H]1C=C2c3cccc4c3c(cn4C(=O)C3CC3)C[C@H]2N(C)C1` [1cp-LSD, N1-(cyclopropylmethanoyl)-lysergic acid diethylamide], on 5HT2A receptor, the “calcium flux downstream of 5HT2A receptor activation” value was “significant induction of calcium”.
`CC(=O)Oc1cccc2[nH]cc(CCN(C)C)c12` [4-acetoxy DMT, O-acetylpsilocin]: the “release rate compared with Rhodamine dye” value in series [1] is listed as “very similar rate”.
In the case of `COc1cc(CC(C)N)c(OC)cc1I` (stereo not drawn) [DOI, 2,5-dimethoxy-4-iodoamphetamine], the detection in blood entry in series [2] (8 hrs post-implantation) was “consistently detected”. Further, the “time at which blood concentration returned to baseline” value in series [2] (remained at baseline through 24 hrs) is no more than 16 h. Moreover, in series [3], the “time by which cleared from plasma, brain, liver, and kidneys” value was roughly 12 h; the “time of peak concentration in brain, liver, and kidneys” value is 2 to 4 h; the “time of peak concentration in plasma” value stood at 2 h. In addition, on 5HT2A receptor, the “calcium flux downstream of 5HT2A receptor activation” value was “significant induction of calcium”. Also, the “concentration profile in brain, liver, and kidneys” value in series [4] is “matched the pulsed profile of the blood plasma”. Also, in series [4] (post-implantation), the “time of peak plasma concentration, first pulse” value was roughly 2 h; the “time of peak plasma concentration, second pulse” value is roughly 12 h; the “time of peak plasma concentration, third pulse” value is roughly 24 h. The “release rate compared with Rhodamine dye” value in series [1] was “very similar rate”.
Regarding `CCN(CC)c1ccc2c(-c3ccccc3C(=O)O)c3ccc(=[N+](CC)CC)cc-3oc2c1` [Rhodamine, rhodamine B], in series [5] (setting [6]), the “time of peak of first drug pulse” value amounted to 16 h. The “time of peak of second drug pulse” value in series [5] (setting [6]) stood at 72 h. For the same molecule, in series [5] (setting [6]), the “time of peak of third drug pulse” value was roughly 120 h. The “spacing between three intermittent drug pulses” value in series [5] (second generation design, two blank layers between drug-loaded films and blank layers at bottom) was roughly 70 h. In addition, the “time to complete release” value in series [1] (from 0.1 mm thick single-layered CAPP film) was roughly 18 h; in series [1] (from 0.2 mm thick single-layered CAPP film), roughly 36 h; in series [1] (from 0.3 mm thick single-layered CAPP film), roughly 60 h; in series [1] (from 0.4 mm thick single-layered CAPP film) it was roughly 78 h.
